Results published in ChEMBL document CHEMBL5724914, “Linking interpersonal differences in gut microbiota composition and drug biotransformation activity” (2024).

details: human gut metagenome, 24 h, 2 µM
Note: call rule not given here.

Bacterial Biotransformation	SMILES
Compound NOT metabolized	CCOc1ccccc1OCCN[C@H](C)Cc1ccc(OC)c(S(N)(=O)=O)c1.Cl [TAMSULOSIN HYDROCHLORIDE]
Compound NOT metabolized	c1ccc2[nH]c(-c3cscn3)nc2c1 [THIABENDAZOLE]

details: human gut metagenome, 24 h, 2 µM; remark: another data set of the same source

Bacterial Biotransformation	SMILES
Compound metabolized	CCOc1ccccc1OCCN[C@H](C)Cc1ccc(OC)c(S(N)(=O)=O)c1.Cl [TAMSULOSIN HYDROCHLORIDE]
Compound metabolized	c1ccc2[nH]c(-c3cscn3)nc2c1 [THIABENDAZOLE]

experiment: (§1) The drug is tested on Z-027 corresponding to metagenome with ENA study accession number: PRJEB37062 and ENA sample accession number: ERS12561826 for biotransformation under anaerobic condition. The drug concentrations were measured over 9 timepoints collected between 0 and 24 hours of incubation by liquid-chromatography-coupled mass spectrometry (LC–MS); details: 2 µM

Bacterial Biotransformation	SMILES
Compound NOT metabolized	CCOc1ccccc1OCCN[C@H](C)Cc1ccc(OC)c(S(N)(=O)=O)c1.Cl [TAMSULOSIN HYDROCHLORIDE]
Compound NOT metabolized	c1ccc2[nH]c(-c3cscn3)nc2c1 [THIABENDAZOLE]

experiment: (§2) The drug is tested on Z-011 corresponding to mouse gut metagenome with ENA study accession number: PRJEB37062 and ENA sample accession number: ERS12561811 for biotransformation under anaerobic condition. The drug concentrations were measured over 9 timepoints collected between 0 and 24 hours of incubation by liquid-chromatography-coupled mass spectrometry (LC–MS); details: 2 µM

Bacterial Biotransformation	SMILES
Compound NOT metabolized	CCOc1ccccc1OCCN[C@H](C)Cc1ccc(OC)c(S(N)(=O)=O)c1.Cl [TAMSULOSIN HYDROCHLORIDE]
Compound NOT metabolized	c1ccc2[nH]c(-c3cscn3)nc2c1 [THIABENDAZOLE]

details: human gut metagenome, 24 h, 2 µM; remark: another data set of the same source

Bacterial Biotransformation	SMILES
Compound NOT metabolized	CCOc1ccccc1OCCN[C@H](C)Cc1ccc(OC)c(S(N)(=O)=O)c1.Cl [TAMSULOSIN HYDROCHLORIDE]
Compound NOT metabolized	c1ccc2[nH]c(-c3cscn3)nc2c1 [THIABENDAZOLE]

details: human gut metagenome, 24 h, 2 µM; remark: another data set of the same source

Bacterial Biotransformation	SMILES
Compound NOT metabolized	CCOc1ccccc1OCCN[C@H](C)Cc1ccc(OC)c(S(N)(=O)=O)c1.Cl [TAMSULOSIN HYDROCHLORIDE]
Compound NOT metabolized	c1ccc2[nH]c(-c3cscn3)nc2c1 [THIABENDAZOLE]

details: human gut metagenome, 24 h, 2 µM; remark: another data set of the same source

Bacterial Biotransformation	SMILES
Compound NOT metabolized	CCOc1ccccc1OCCN[C@H](C)Cc1ccc(OC)c(S(N)(=O)=O)c1.Cl [TAMSULOSIN HYDROCHLORIDE]
Compound NOT metabolized	c1ccc2[nH]c(-c3cscn3)nc2c1 [THIABENDAZOLE]

details: human gut metagenome, 24 h, 2 µM; remark: another data set of the same source

Bacterial Biotransformation	SMILES
Compound NOT metabolized	CCOc1ccccc1OCCN[C@H](C)Cc1ccc(OC)c(S(N)(=O)=O)c1.Cl [TAMSULOSIN HYDROCHLORIDE]
Compound NOT metabolized	c1ccc2[nH]c(-c3cscn3)nc2c1 [THIABENDAZOLE]

experiment: as §2, with “Z-016” for “Z-011”, “ERS12561815” for “ERS12561811”; details: 2 µM

Bacterial Biotransformation	SMILES
Compound NOT metabolized	CCOc1ccccc1OCCN[C@H](C)Cc1ccc(OC)c(S(N)(=O)=O)c1.Cl [TAMSULOSIN HYDROCHLORIDE]
Compound NOT metabolized	c1ccc2[nH]c(-c3cscn3)nc2c1 [THIABENDAZOLE]

details: human gut metagenome, 24 h, 2 µM; remark: another data set of the same source

Bacterial Biotransformation	SMILES
Compound NOT metabolized	CCOc1ccccc1OCCN[C@H](C)Cc1ccc(OC)c(S(N)(=O)=O)c1.Cl [TAMSULOSIN HYDROCHLORIDE]
Compound NOT metabolized	c1ccc2[nH]c(-c3cscn3)nc2c1 [THIABENDAZOLE]

details: human gut metagenome, 24 h, 2 µM; remark: another data set of the same source

Bacterial Biotransformation	SMILES
Compound NOT metabolized	CCOc1ccccc1OCCN[C@H](C)Cc1ccc(OC)c(S(N)(=O)=O)c1.Cl [TAMSULOSIN HYDROCHLORIDE]
Compound NOT metabolized	c1ccc2[nH]c(-c3cscn3)nc2c1 [THIABENDAZOLE]

experiment: as §2, with “WLS-098” for “Z-011”, “human” for “mouse”, “ERS12561754” for “ERS12561811”; details: 2 µM

Bacterial Biotransformation	SMILES
Compound metabolized	CCOc1ccccc1OCCN[C@H](C)Cc1ccc(OC)c(S(N)(=O)=O)c1.Cl [TAMSULOSIN HYDROCHLORIDE]
Compound metabolized	c1ccc2[nH]c(-c3cscn3)nc2c1 [THIABENDAZOLE]

experiment: as §2, with “WLS-069” for “Z-011”, “human” for “mouse”, “ERS12561748” for “ERS12561811”; details: 2 µM

Bacterial Biotransformation	SMILES
Compound NOT metabolized	CCOc1ccccc1OCCN[C@H](C)Cc1ccc(OC)c(S(N)(=O)=O)c1.Cl [TAMSULOSIN HYDROCHLORIDE]
Compound NOT metabolized	c1ccc2[nH]c(-c3cscn3)nc2c1 [THIABENDAZOLE]

experiment: as §1, with “Z-012” for “Z-027”, “ERS12561812” for “ERS12561826”; details: 2 µM

Bacterial Biotransformation	SMILES
Compound NOT metabolized	CCOc1ccccc1OCCN[C@H](C)Cc1ccc(OC)c(S(N)(=O)=O)c1.Cl [TAMSULOSIN HYDROCHLORIDE]
Compound NOT metabolized	c1ccc2[nH]c(-c3cscn3)nc2c1 [THIABENDAZOLE]

experiment: as §2, with “WLS-240” for “Z-011”, “human” for “mouse”, “ERS12561773” for “ERS12561811”; details: 2 µM

Bacterial Biotransformation	SMILES
Compound NOT metabolized	CCOc1ccccc1OCCN[C@H](C)Cc1ccc(OC)c(S(N)(=O)=O)c1.Cl [TAMSULOSIN HYDROCHLORIDE]
Compound metabolized	c1ccc2[nH]c(-c3cscn3)nc2c1 [THIABENDAZOLE]

experiment: as §2, with “Z-002” for “Z-011”, “rabbit” for “mouse”, “ERS12561802” for “ERS12561811”; details: 2 µM

Bacterial Biotransformation	SMILES
Compound metabolized	CCOc1ccccc1OCCN[C@H](C)Cc1ccc(OC)c(S(N)(=O)=O)c1.Cl [TAMSULOSIN HYDROCHLORIDE]
Compound NOT metabolized	c1ccc2[nH]c(-c3cscn3)nc2c1 [THIABENDAZOLE]

experiment: as §2, with “Z-024” for “Z-011”, “pig” for “mouse”, “ERS12561823” for “ERS12561811”; details: 2 µM

Bacterial Biotransformation	SMILES
Compound NOT metabolized	CCOc1ccccc1OCCN[C@H](C)Cc1ccc(OC)c(S(N)(=O)=O)c1.Cl [TAMSULOSIN HYDROCHLORIDE]
Compound NOT metabolized	c1ccc2[nH]c(-c3cscn3)nc2c1 [THIABENDAZOLE]

experiment: as §2, with “WLS-038” for “Z-011”, “human” for “mouse”, “ERS12561745” for “ERS12561811”; details: 2 µM

Bacterial Biotransformation	SMILES
Compound NOT metabolized	CCOc1ccccc1OCCN[C@H](C)Cc1ccc(OC)c(S(N)(=O)=O)c1.Cl [TAMSULOSIN HYDROCHLORIDE]
Compound NOT metabolized	c1ccc2[nH]c(-c3cscn3)nc2c1 [THIABENDAZOLE]

details: human gut metagenome, 24 h, 2 µM; remark: another data set of the same source

Bacterial Biotransformation	SMILES
Compound NOT metabolized	CCOc1ccccc1OCCN[C@H](C)Cc1ccc(OC)c(S(N)(=O)=O)c1.Cl [TAMSULOSIN HYDROCHLORIDE]
Compound NOT metabolized	c1ccc2[nH]c(-c3cscn3)nc2c1 [THIABENDAZOLE]

experiment: as §2, with “Z-029” for “Z-011”, “rat” for “mouse”, “ERS12561828” for “ERS12561811”; details: 2 µM

Bacterial Biotransformation	SMILES
Compound NOT metabolized	CCOc1ccccc1OCCN[C@H](C)Cc1ccc(OC)c(S(N)(=O)=O)c1.Cl [TAMSULOSIN HYDROCHLORIDE]
Compound NOT metabolized	c1ccc2[nH]c(-c3cscn3)nc2c1 [THIABENDAZOLE]
